From PMC3780361 (Bioorganic & medicinal chemistry, 2013)
Converted amounts (≈) assume the structure as drawn.

Tests used:
[1] = tested on: M. tb H37Rv; details: secondary-linked 1 vs tertiary-linked 2; cited from earlier work
[2] = tested on: M. tb H37Rv; assay: M. tb MIC determination by microbroth dilution; format: cell-based; details: Mycobacterium tuberculosis, 168 h, read-out: M. tb MIC
[3] = biological target: T1, recombinant human sEH (Homo sapiens, UniProt P34913); assay: Human soluble epoxide hydrolase assay; format: biochemical
T1 sequence (P34913 1-555): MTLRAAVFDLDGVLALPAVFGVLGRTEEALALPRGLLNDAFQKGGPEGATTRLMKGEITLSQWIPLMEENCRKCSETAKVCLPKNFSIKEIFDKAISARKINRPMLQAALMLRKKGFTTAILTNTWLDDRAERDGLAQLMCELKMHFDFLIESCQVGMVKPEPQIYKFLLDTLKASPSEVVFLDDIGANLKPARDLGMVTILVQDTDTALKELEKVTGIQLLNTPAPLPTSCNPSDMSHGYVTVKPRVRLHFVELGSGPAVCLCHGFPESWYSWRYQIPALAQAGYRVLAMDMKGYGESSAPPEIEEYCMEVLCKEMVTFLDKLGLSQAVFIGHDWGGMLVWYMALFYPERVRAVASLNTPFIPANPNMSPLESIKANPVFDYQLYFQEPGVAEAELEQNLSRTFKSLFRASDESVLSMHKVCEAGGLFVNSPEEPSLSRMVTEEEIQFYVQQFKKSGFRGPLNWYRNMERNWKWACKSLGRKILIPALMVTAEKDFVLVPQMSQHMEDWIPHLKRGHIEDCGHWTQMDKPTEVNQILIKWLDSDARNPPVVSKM

[4] = physchem; details: pH 7.4
[5] = in vitro; details: monkey; for IC50 at 72 h: Cytotoxicity IC50
[6] = Cytotoxicity determination; details: monkey, Cytotoxicity IC50, VERO cell line, MTT
[7] = Permeability determination; details: PAMPA, pH 7.4

Structure (SMILES): O=C(Nc1ccc(F)c(F)c1F)NC1C2CC3CC(C2)CC1C3 (stereo not drawn) [Compound 1]
- Fold more potent than 2 (anti-TB activity) [1]: 40 fold

Structure (SMILES): Nc1ccc(S(=O)(=O)c2ccc(NC(=O)NC34CC5CC(CC(C5)C3)C4)cc2)cc1 [Compound 13, 1-(1-adamantyl)-3-(4-((4-aminophenyl)sulfonyl)phenyl)urea]
- MIC [2]: 6.25 µg/mL (≈ 14.7 µM)
- IC50 [3]: 700 pM
- solubility at 18 h [4]: 0.9 ± 0.1 µg/mL (≈ 2.11 µM)
- selectivity ratio at 72 h [5]: 23
- IC50 at 72 h [5]: > 100 µg/mL

Structure (SMILES): Cc1cc(NC(=O)NC23CC4CC(CC(C4)C2)C3)no1 [Compound 23, 1-(1-adamantyl)-3-(5-methylisoxazol-3-yl)urea]
- solubility at 18 h [4]: ~25 µg/mL (≈ 90.8 µM)

Structure (SMILES): Cc1nnc(NC(=O)NC23CC4CC(CC(C4)C2)C3)o1 [Compound 36, 1-(1-adamantyl)-3-(5-methyl-1,3,4-oxadiazol-2-yl)urea]
- solubility at 18 h [4]: ~10 µg/mL (≈ 36.2 µM)

Structure (SMILES): CC(C)c1nnc(NC(=O)NC23CC4CC(CC(C4)C2)C3)o1 [Compound 37, 1-(1-adamantyl)-3-(5-isopropyl-1,3,4-oxadiazol-2-yl)urea]
- solubility at 18 h [4]: ~10 µg/mL (≈ 32.9 µM)

Structure (SMILES): Cc1cc(NC(=O)NC2C3CC4CC(C3)CC2C4)no1 (stereo not drawn) [Compound 47, 1-(2-adamantyl)-3-(5-methylisoxazol-3-yl)urea]
- solubility at 18 h [4]: ~25 µg/mL (≈ 90.8 µM)
- selectivity ratio at 72 h [5]: > 8
- IC50 at 72 h [5]: > 48 µg/mL

Structure (SMILES): O=C(Nc1nnc(C2CC2)o1)NC1C2CC3CC(C2)CC1C3 (stereo not drawn) [Compound 50, 1-(2-adamantyl)-3-(5-cyclopropyl-1,3,4-oxadiazol-2-yl)urea]
- IC50 at 72 h [6]: > 100 µg/mL

Structure (SMILES): CCn1nc(NC(=O)NC2C3CC4CC(C3)CC2C4)cc1C (stereo not drawn) [Compound 52, 1-(2-adamantyl)-3-(1-ethyl-5-methylpyrazol-3-yl)urea]
- IC50 at 72 h [6]: > 100 µg/mL

Structure (SMILES): CCCSc1ccc2nc(NC(=O)OC)[nH]c2c1 [albendazole]
- Papp at 0.5 hr, 50 µM [7]: ~441 ×10⁻⁶ cm/s
